Data reported in patent publication US20040028749A1, “Treating inflammation and associated complications” (priority 2000, published 2004).

Target: MPO (Homo sapiens, UniProt P05164)
Experiment: Stopped-flow kinetics of NO with MPO
Format: biochemical
Parameters: MPO was initially purified from detergent extracts of human leukocytes; from tissue; host or cells: human leukocytes (detergent extracts)
Description: […] EPO was isolated from porcine whole blood obtained fresh at the slaughterhouse as described by Jorg et al. (1982) Biochim Biophys Acta 701:185-191. EPO was assayed by guaiacol oxidation (see Klebanoff et al. (1984) Methods Enzymol. 105:399-403). […] The concentration of the MPO dimer was calculated as half the indicated concentration of heme-like chromophore. Bovine LPO was obtained from Worthington Biochemistry Corporation (Lakewood, N.J.) and used without further purification.
To examine the kinetics of interaction between NO and MPO Compounds I and II, stopped-flow spectroscopy was used. The kinetics of Compound II formation and decay in the absence and presence of different NO concentrations were performed using a dual syringe stopped-flow instrument obtained from Hi-Tech Ltd (model SF-51). Measurements were carried out under anaerobic atmosphere, at 25° C. and monitored at 455 nm (an isosbestic point of Compound I and MPO ground state) following rapid mixing of equal volumes of an H202-containing buffer solution and an MPO solution that contained different NO concentrations. The time course of absorbance change was fit to either single or double exponential functions as indicated. The rate constants for the formation (kon) and decay (koff) of the MPO-Fe(III)-NO complex in the presence of plasma levels of the alternative substrate Cl^− (100 mM) were determined by monitoring absorbance change at 430 nm at 10° C. […]
Rapid kinetic studies were initially performed under Cl^− free conditions using 2 co-substrates, a fixed (low) level of H2O2 and variable levels of NO. […] The subsequent decrease in absorbance at 455 nm observed was also fit to a single exponential function with a rate constant of […] and was attributed to the decay of compound II.
(An anaerobic solution containing sodium phosphate buffer (200 mM, pH 7.0) supplemented with H2O2 (20 μM) was rapidly mixed with an equal volume of buffer containing 0.86 μM of MPO-Fe(III) and differing concentrations of NO at 25° C.) NO was readily used as a one e^− substrate by Compound I, as indicated by the rapid buildup of MPO Compound II. […]
In a parallel series of experiments, the influence of NO on the kinetics of MPO Compound II buildup, duration, and decay during steady-state catalysis in the presence of plasma levels of the competing substrate Cl^− was examined. Reactions were again performed under anaerobic conditions and the absorbance change at 455 nm monitored following rapid mixing of enzyme and various concentrations of NO (2.5, 12.5, 25 and 50 μM final) in the presence of H202 (10 μM final) and Cl^− (100 mM final). Anaerobic spectra of MPO-Fe(III) were recorded at 25° C. in septum-sealed quartz cuvettes that were equipped with a quick-fit joint for attachment to a vacuum system. […]

Sequence of MPO (P05164 279-745 limits assumed): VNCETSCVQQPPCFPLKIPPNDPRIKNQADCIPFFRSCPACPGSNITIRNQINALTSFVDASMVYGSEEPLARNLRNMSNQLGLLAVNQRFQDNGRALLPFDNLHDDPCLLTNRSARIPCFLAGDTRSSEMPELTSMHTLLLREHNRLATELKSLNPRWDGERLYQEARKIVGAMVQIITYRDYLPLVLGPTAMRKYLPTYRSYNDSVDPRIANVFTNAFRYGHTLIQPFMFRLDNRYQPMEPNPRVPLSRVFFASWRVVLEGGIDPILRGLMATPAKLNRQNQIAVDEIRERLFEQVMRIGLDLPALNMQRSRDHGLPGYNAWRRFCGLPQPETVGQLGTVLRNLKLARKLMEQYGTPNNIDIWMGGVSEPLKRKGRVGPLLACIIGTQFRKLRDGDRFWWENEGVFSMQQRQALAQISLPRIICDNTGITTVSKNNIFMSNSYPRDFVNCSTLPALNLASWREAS
Sequence of MPO (P05164 165-273 limits assumed): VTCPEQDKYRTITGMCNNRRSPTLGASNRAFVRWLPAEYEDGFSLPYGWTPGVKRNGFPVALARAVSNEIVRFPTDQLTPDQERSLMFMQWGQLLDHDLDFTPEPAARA

[N]=O [NO, nitric oxide]
enhancement of rate of MPO Compound II accumulation (10 μM H2O2, Cl^− free, 25° C.): ~20 fold | koff (100 mM Cl^−, 11° C., read-out: koff for NO binding to MPO-Fe(III)): 22.3 s⁻¹ | kon (100 mM Cl^−, 11° C., read-out: kon for NO binding to MPO-Fe(III)): 150000 M⁻¹ s⁻¹ | second order rate constant of MPO Compound II decay (Cl^− free, 25° C.): 8×10^3 M^−1S^−1
